pEC50, pIC50, pKi: −log10 of the molar value. Read-outs that look alike come from different tables or passages of the source.
How the values were obtained:
HIV = details: EI01D; read-out: EC50 inhibition of viral load of PBMCs infected with HIV; cited from earlier work
[1] = Cytotoxicity in PBMC, CellTiter 96 MTS viability assay; assay type: cell-based; details: human, human primary PBMCs
[2] = Cytotoxicity, MTT method in LUNET cells; assay type: cell-based; details: human; MMT method in LUNET cells; read-out: CC50 (μM) non-infected cells
Procedure: (§1) Toxicity (CC50) was analysed in the Lunet/HuH7 cells by the addition of 10 μL of MTT (3-(4,5-dimethylthiazol-2-yl)-2,5-diphenyltetrazolium bromide) per well. After 4 h of incubation at 37° C. in a humidified atmosphere with 5% CO2, the amount of formazan produced was quantified spectrophotometrically at 550/620 nm (C. Pannecouque et al, Nature protocol 2008; 3 (3): 427-434). […] These assays were done in duplicate.

JEV strain (NJ2008) = experiment: JEV infectious cell culture system, plaque formation assay in BHK-21 cells; details: Japanese encephalitis virus, BHK-21, read-out: JEV EC50
HIV (PBMC) = experiment: HIV infectious cell culture system in PBMC, HIV-1 RNA in supernatant; details: Human immunodeficiency virus 1, PBMC, 72 h, read-out: EC50 HIV (PBMC) 72 h
[3] = Cytotoxicity in the JEV cell culture system; details: hamster
DDX3 Helicase [4] = target: T1, DDX3 Helicase (Homo sapiens, UniProt O00571); details: read-out: ID50 (μM) against DDX3 Helicase; n.a. = compound not active
T1 sequence (O00571 whole entry): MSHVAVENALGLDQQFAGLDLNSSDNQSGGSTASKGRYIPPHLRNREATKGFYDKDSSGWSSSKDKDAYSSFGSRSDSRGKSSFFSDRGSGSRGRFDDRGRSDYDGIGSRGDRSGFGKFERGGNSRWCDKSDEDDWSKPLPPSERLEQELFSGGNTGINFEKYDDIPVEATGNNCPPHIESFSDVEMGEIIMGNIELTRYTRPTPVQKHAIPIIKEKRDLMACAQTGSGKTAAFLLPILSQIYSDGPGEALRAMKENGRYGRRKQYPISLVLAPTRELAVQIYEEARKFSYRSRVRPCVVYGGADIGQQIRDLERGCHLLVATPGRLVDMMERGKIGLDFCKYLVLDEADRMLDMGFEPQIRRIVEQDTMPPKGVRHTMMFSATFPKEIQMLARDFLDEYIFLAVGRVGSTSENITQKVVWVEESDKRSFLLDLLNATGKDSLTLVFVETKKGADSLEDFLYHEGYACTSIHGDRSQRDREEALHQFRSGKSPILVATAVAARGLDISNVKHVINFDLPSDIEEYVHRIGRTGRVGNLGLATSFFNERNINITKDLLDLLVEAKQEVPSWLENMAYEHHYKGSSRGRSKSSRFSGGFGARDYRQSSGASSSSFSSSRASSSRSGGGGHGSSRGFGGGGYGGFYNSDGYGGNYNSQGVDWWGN

[5] = tested on: Hepatitis C Virus (HCV) replicon system; experiment: HCV replicon system, luciferase method in LucUbiNeo-ET cells; details: for EC50: read-out: EC50 (μM) HCV replicon system
[6] = tested on: HIV-1 wild-type reference strain NL4-3; experiment: HIV-1 phenotypic assay, MT-2 cells then TZM-bl cells, luciferase; assay type: cell-based; details: Human immunodeficiency virus 1, NL43; first cycle in MT-2 cells, additional round in TZM-bl cells
PRRSV = PRRSV infectious cell culture system, plaque formation assay in MARC-145 cells; assay type: cell-based; details: Porcine reproductive and respiratory syndrome virus, MARC145; viral titre by plaque formation assay in MARC-145 cells
Procedure: According to the requirement of different experiments, MARC-145 cells were either infected with PRRSV at MOIs of 0.1, 1 or 10, or mock infected with phosphate-buffered saline (PBS). After 1 h incubation at 37° C., unbounded viruses were removed by washing thrice with PBS and cultured in DMEM supplemented with 8% FBS at 37° C. for various lengths of time. For the autophagy induction and inhibition experiments, MARC-145 cells were pretreated with varying concentrations of rapamycin or 3-MA for 4 h before viral infection. MARC-145 cells were then infected with PRRSV at MOI of 1. After 1 h incubation at 37° C., unbounded viruses were removed by washing thrice with PBS and cultured in DMEM supplemented with 2% FBS containing varying concentrations of compound, 3-MA or the corresponding amount of dimethyl sulfoxide (DMSO, control) at 37° C. for 24 h.

[7] = tested on: human liver microsome (HLM); experiment: Microsomal Stability Assay; details: human liver microsomes, 37 °C, 60 min, compound 50 μM; percentage of not metabolized compound
Lunet/HuH7 cells = experiment: Cytotoxicity, MTT method in LUNET cells; assay type: cell-based; details: MMT method in LUNET cells; read-out: CC50 (μM) non-infected cells
Procedure: as §1

in vitro = details: hamster
HIV-1 (IIIB) = details: read-out: EC50 replication of HIV-1 (IIIB) in MT4-cells; cited from earlier work
DDX3 = DDX3 (Homo sapiens, UniProt O00571); details: literature values; cited from earlier work
DDX3, sequence (O00571 whole entry): as above

MOLT-4 T-lymphocytic = details: cited from earlier work
DDX3 Helicase [8] = target: T1, DDX3 Helicase; experiment: biochemical
Water Solubility Assay = assay type: physicochemical; details: thermodynamic from solid
Procedure: Water Solubility Assay. Each solid compound (1 mg) was added to 1 mL of water. The samples were shaked in a shaker bath at room temperature for 24-36 h. The suspensions were filtered through a 0.45 μm nylon filter (Acrodisc), and the solubilized compound determined by LC-MS-MS assay. For each compound the determination was performed in triplicate.
For the quantification was used an LC-MS system consisted of a Varian apparatus (Varian Inc) including a vacuum solvent degassing unit, two pumps (212-LC), a Triple Quadrupole MSD (Mod. 320-LC) mass spectrometer with ES interface and Varian MS Workstation System Control Vers. 6.9 software. […] The flow rate was 0.2 mL min^−1 and injection volume was 5 μL. The instrument operated in positive mode and parameters were: detector 1850 V, drying gas pressure 25.0 psi, desolvation temperature 300.0° C., nebulizing gas 40.0 psi, needle 5000 V and shield 600 V. Nitrogen was used as nebulizer gas and drying gas. Collision induced dissociation was performed using Argon as the collision gas at a pressure of 1.8 mTorr in the collision cell.

[9] = Cytotoxicity in Huh7 cells, nuclei counts; details: human
[10] = Parallel Artificial Membrane Permeability Assay (PAMPA); assay type: in vitro ADME; details: for PAMPA membrane retention (RM %): value in brackets in the PAMPA cell
Procedure: Parallel Artificial Membrane Permeability Assay (PAMPA). Donor solution (0.5 mM) was prepared by diluting 1 mM dimethylsulfoxide (DMSO) compound stock solution using phosphate buffer (pH 7.4, 0.025 M). Filters were coated with 5 μL of a 1% (w/v) dodecane solution of phosphatidylcholine prepared from CHCl3 solution 10% w/v, for intestinal permeability. Donor solution (150 μL) was added to each well of the filter plate. To each well of the acceptor plate were added […] (50% DMSO in phosphate buffer). All compounds were tested in three different plates on different days. The sandwich was incubated for 5 h at room temperature under gentle shaking. After the incubation time, the plates were separated, and samples were taken from both receiver and donor sides and analyzed using LC with UV detection at 280 nm.
LC analysis were performed with a Varian Prostar HPLC system (Varian Analytical Instruments, USA) equipped with a binary pump with a manual injection valve and model Prostar 325 UV-VIS Detector.
Permeability (Papp) for PAMPA was calculated according to the following equation, obtained from Wohnsland and Faller and Sugano et al. equation with some modification in order to obtain permeability values in cm s^−1,
where VA is the volume in the acceptor well, VD is the volume in the donor well (cm^3), A is the “effective area” of the membrane (cm^2), t is the incubation time (s) and r the ratio between drug concentration in the acceptor and equilibrium concentration of the drug in the total volume (VD+VA). Drug concentration is estimated by using the peak area integration.
Membrane retentions (%) were calculated according to the following equation: […]
where r is the ratio between drug concentration in the acceptor and equilibrium concentration, D, A, and Eq represented drug concentration in the donor, acceptor and equilibrium solution, respectively.

[11] = Cytotoxicity, MTT method in HuH7.5 cells; assay type: cell-based; details: human, non-infected, read-out: HCV CC50
Procedure: After 4 h of incubation at 37° C. in a humidified atmosphere with 5% CO2, the amount of formazan produced was quantified spectrophotometrically at 550/620 nm (C. Pannecouque et al, Nature protocol 2008; 3 (3): 427-434). […] These assays were done in duplicate.

[12] = tested on: HCV Jc1 (genotype 2a virus); experiment: HCV infectious cell culture system, NS5A immunostaining; details: Hepatitis C virus, Huh7.5, read-out: HCV EC50
[13] = experimental aqueous solubility, read-out: LogS (converted)
[14] = room temperature, 24-36 h, read-out: Aq. Solub.
[15] = DENV CC50, Huh7 cells, DENV experiment
[16] = WNV CC50, Huh7 cells, WNV experiment

SMILES: Cc1ccccc1NC(=O)Nc1cccc([N+](=O)[O-])c1 [EI01D, reference compound]
- pEC50 (HIV): 5.00
- CC50 at 72 h [1]: 100 µM
- CC50 [2]: 86 µM
- pEC50 (JEV strain (NJ2008)): 5.00
- pEC50 (HIV (PBMC)): 5.00
- CC50 [3]: > 50 µM
- IC50 (DDX3 Helicase [4]): 1 µM
- activity against HCV, in words [5]: completely inactive
- EC50 ([5]; Hepatitis C virus, 48 h): > 86 µM

SMILES: CCCCc1cn(-c2cccc(S(=O)(=O)Nc3ccccc3C(F)(F)F)c2)nn1 [Compound 64d, 3-(4-butyl-1H-1,2,3-triazol-1-yl)-N-(2-(trifluoromethyl)phenyl)benzenesulfonamide]
- CC50 at 24 h ([1]; 24 h): 2130 µM
- CC50 at 48 h ([1]; 48 h): 332 µM
- CC50 at 72 h [1]: 198 µM
- pEC50 (JEV strain (NJ2008)): 5.17
- pEC50 (HIV (PBMC)): 4.51
- CC50 [3]: > 50 µM
- pEC50 [6]: 4.90
- IC50 (DDX3 Helicase [4]): 0.4 µM
- pEC50 (PRRSV): 4.52
- Metabolic stability (Sability %) [7]: 99%

SMILES: CCCCCCc1cn(-c2ccc(NC(=O)Nc3ccccc3C(F)(F)F)cc2)nn1 [Compound 8d]
- CC50 (Lunet/HuH7 cells): 290 µM
- EC50 ([5]; luciferase method in LucUbiNeo-ET cells, 2 days): 0.67 µM

SMILES: CCOP(=O)(OCC)OCCc1cn(-c2ccc(NC(=O)Nc3ccccc3C)cc2)nn1 [Compound 36, diethyl (2-(1-(4-(3-(o-tolyl)ureido)phenyl)-1H-1,2,3-triazol-4-yl)ethyl) phosphate]
- CC50 (in vitro): > 50 µM
- CC50 [2]: > 150 µM
- pEC50 (JEV strain (NJ2008)): 4.68
- IC50 (DDX3 Helicase [4]): 0.9 µM
- EC50 ([5]; Hepatitis C virus, 48 h): 75 µM

SMILES: O=C(CN1C(=O)/C(=C/c2cccc(Br)c2)SC1=S)Nc1ccccc1O [FE15]
- pEC50 (HIV-1 (IIIB)): 4.06
- pKi (DDX3): 5.27
- CC50 (MOLT-4 T-lymphocytic): > 200 µM

SMILES: CCCCc1cn(-c2ccc(NC(=O)Nc3ccccc3C(F)(F)F)cc2)nn1 [Compound 22a, 1-(4-(4-butyl-1H-1,2,3-triazol-1-yl)phenyl)-3-(2-(trifluoromethyl)phenyl)urea]
- pIC50 (DDX3 Helicase [8]): 6.52
- CC50 [2]: 200 µM
- solubility (Water Solubility Assay; [13]): 0.0372 µM
- solubility (Water Solubility Assay; [14]): 0.107 µg/mL
- CC50 at 48 h [9, 15]: 178 µM
- CC50 at 48 h [9, 16]: 145 µM
- PAMPA Papp *10^−6 (cm/s) GI ([10]; phosphatidylcholine in dodecane, pH 7.4, 5 h, room temperature): 7.47 *10^−6 cm/s
- PAMPA membrane retention (RM %) [10]: 23.9%
- activity against HCV, in words [5]: best activity
- EC50 ([5]; Hepatitis C virus, 48 h): 0.3 µM
- CC50 [11]: 94.4 µM
- pEC50 [12]: 6.22

SMILES: Cc1ccccc1NC(=O)Nc1ccc(-n2cc(CCC(C)C)nn2)cc1 [Compound 20b, 1-(4-(4-isopentyl-1H-1,2,3-triazol-1-yl)phenyl)-3-o-tolylurea]
- pIC50 (DDX3 Helicase [8]): 6.30
- CC50 [2]: 189 µM
- solubility (Water Solubility Assay; [13]): < 0.00251 µM
- solubility (Water Solubility Assay; [14]): < 0.001 µg/mL
- CC50 at 48 h [9, 15]: 40.4 µM
- CC50 at 48 h [9, 16]: 62.3 µM
- Papp at 5 h, 0.5 mM ([10]; PAMPA, phosphatidylcholine in dodecane, pH 7.4, 5 h, room temperature, read-out: PAMPA Papp *10^−6 (cm/s) GI): 1.93 ×10⁻⁶ cm/s
- PAMPA membrane retention (RM %) [10]: 26.7%
- activity against HCV, in words [5]: best activity
- EC50 ([5]; Hepatitis C virus, 48 h): 0.8 µM
- CC50 [11]: 209 µM
- pEC50 [12]: 4.52

Reference: US10941121B2 (AZIENDA OSPEDALIERA UNIVERSITARIA SENESE, priority 2015, dated 2021)
